Data: ChEMBL document CHEMBL5365420, “Kinetics, Thermodynamics, and Structural Effects of Quinoline-2-Carboxylates, Zinc-Binding Inhibitors of New Delhi Metallo-β-lactamase-1 Re-sensitizing Multidrug-Resistant Bacteria for Carbapenems” (J Med Chem, 2023)

How the values were obtained:
Assay type in all cases: functional
Escherichia coli [1] = assay: Antibacterial activity against clinical isolate Escherichia coli K12 J53-ST10 684/18 expressing blaNDM-1 co-expressing blaCMY-2 and blaOXA-10 assessed as meropenem MIC at 23.5 uM measured after 20 hrs by broth microdilution assay (reference value: 5.03 mg/L)
Escherichia coli [2] = assay: Antibacterial activity against clinical isolate Escherichia coli K12 J53-ST10 684/18 expressing blaNDM-1 co-expressing blaCMY-2 and blaOXA-10 assessed as meropenem MIC at 47 uM measured after 20 hrs by broth microdilution assay (reference value: 10.06 mg/L)
Escherichia coli [3] = assay: Antibacterial activity against clinical isolate Escherichia coli K12 J53-ST10 696/17 expressing blaNDM-1 co-expressing blaCMY-4 assessed as meropenem MIC at 23.5 uM measured after 20 hrs by broth microdilution assay (reference value: 5.03 mg/L)
Escherichia coli [4] = assay: Antibacterial activity against clinical isolate Escherichia coli K12 J53-ST10 696/17 expressing blaNDM-1 co-expressing blaCMY-4 assessed as meropenem MIC at 47 uM measured after 20 hrs by broth microdilution assay (reference value: 10.06 mg/L)
Escherichia coli [5] = assay: Antibacterial activity against clinical isolate Escherichia coli K12 J53-ST10 618/15 expressing blaNDM-1 assessed as meropenem MIC at 23.5 uM measured after 20 hrs by broth microdilution assay (reference value: 5.03 mg/L)
Escherichia coli [6] = assay: Antibacterial activity against clinical isolate Escherichia coli K12 J53-ST10 618/15 expressing blaNDM-1 assessed as meropenem MIC at 47 uM measured after 20 hrs by broth microdilution assay (reference value: 10.06 mg/L)
Escherichia coli [7] = assay: Antibacterial activity against clinical isolate Escherichia coli K12 J53-ST10 699/15 expressing blaNDM-1 assessed as meropenem MIC at 23.5 uM measured after 20 hrs by broth microdilution assay (reference value: 5.03 mg/L)
Escherichia coli [8] = assay: Antibacterial activity against clinical isolate Escherichia coli K12 J53-ST10 699/15 expressing blaNDM-1 assessed as meropenem MIC at 47 uM measured after 20 hrs by broth microdilution assay (reference value: 10.06 mg/L)
Acinetobacter baumannii [9] = assay: Antibacterial activity against clinical isolate Acinetobacter baumannii IC 19/09 expressing blaNDM-1 co-expressing blaOXA-64 assessed as meropenem MIC at 23.5 uM measured after 20 hrs by broth microdilution assay (reference value: 5.03 mg/L)
Acinetobacter baumannii [10] = assay: Antibacterial activity against clinical isolate Acinetobacter baumannii IC 19/09 expressing blaNDM-1 co-expressing blaOXA-64 assessed as meropenem MIC at 47 uM measured after 20 hrs by broth microdilution assay (reference value: 10.06 mg/L)
Escherichia coli [11] = assay: Antibacterial activity against clinical isolate Escherichia coli ST1012/10 expressing blaNDM-1 co-expressing blaTEM-1/blaCTX-M-15/blaOXA-1 and blaOXA-2 assessed as meropenem MIC at 23.5 uM measured after 20 hrs by broth microdilution assay (reference value: 5.03 mg/L)
Escherichia coli [12] = assay: Antibacterial activity against clinical isolate Escherichia coli ST1012/10 expressing blaNDM-1 co-expressing blaTEM-1/blaCTX-M-15/blaOXA-1 and blaOXA-2 assessed as meropenem MIC at 47 uM measured after 20 hrs by broth microdilution assay (reference value: 10.06 mg/L)
Klebsiella pneumoniae [13] = assay: Antibacterial activity against clinical isolate Klebsiella pneumoniae ST1493/10 expressing blaNDM-1 co-expressing blaCMY-2like/blaTEM-1/blaCTX-M-15/blaSHV-28/blaOXA-1 and blaOXA-9 assessed as meropenem MIC at 23.5 uM measured after 20 hrs by broth microdilution assay (reference value: 5.03 mg/L)
Klebsiella pneumoniae [14] = assay: Antibacterial activity against clinical isolate Klebsiella pneumoniae ST1493/10 expressing blaNDM-1 co-expressing blaCMY-2like/blaTEM-1/blaCTX-M-15/blaSHV-28/blaOXA-1 and blaOXA-9 assessed as meropenem MIC at 47 uM measured after 20 hrs by broth microdilution assay (reference value: 10.06 mg/L)
Klebsiella pneumoniae [15] = assay: Antibacterial activity against clinical isolate Klebsiella pneumoniae 50/11 expressing blaNDM-1 co-expressing blaTEM-1/blaSHV-28/blaTEM-1/blaCTX-M-15 and blaOXA-1 assessed as meropenem MIC at 23.5 uM measured after 20 hrs by broth microdilution assay (reference value: 5.03 mg/L)
Klebsiella pneumoniae [16] = assay: Antibacterial activity against clinical isolate Klebsiella pneumoniae 50/11 expressing blaNDM-1 co-expressing blaTEM-1/blaSHV-28/blaTEM-1/blaCTX-M-15 and blaOXA-1 assessed as meropenem MIC at 47 uM measured after 20 hrs by broth microdilution assay (reference value: 10.06 mg/L)
Klebsiella pneumoniae [17] = assay: Antibacterial activity against clinical isolate Klebsiella pneumoniae 50/20 expressing blaNDM-5 co-expressing blaTEM-1 and blaSHV-1 assessed as meropenem MIC at 23.5 uM measured after 20 hrs by broth microdilution assay (reference value: 5.03 mg/L)
Klebsiella pneumoniae [18] = assay: Antibacterial activity against clinical isolate Klebsiella pneumoniae 50/20 expressing blaNDM-5 co-expressing blaTEM-1 and blaSHV-1 assessed as meropenem MIC at 47 uM measured after 20 hrs by broth microdilution assay (reference value: 10.06 mg/L)
Escherichia coli [19] = assay: Antibacterial activity against clinical isolate Escherichia coli 371/12 expressing blaNDM-7 co-expressing blaCTX-M-15 and blaOXA-1 assessed as meropenem MIC at 23.5 uM measured after 20 hrs by broth microdilution assay (reference value: 5.03 mg/L)
Escherichia coli [20] = assay: Antibacterial activity against clinical isolate Escherichia coli 371/12 expressing blaNDM-7 co-expressing blaCTX-M-15 and blaOXA-1 assessed as meropenem MIC at 47 uM measured after 20 hrs by broth microdilution assay (reference value: 10.06 mg/L)
Klebsiella pneumoniae [21] = assay: Antibacterial activity against clinical isolate Klebsiella pneumoniae ST23213/19 expressing blaNDM-1 co-expressing blaOXA-48/blaSHV-11/blaCTX-M-15 and blaOXA-1 assessed as meropenem MIC at 23.5 uM measured after 20 hrs by broth microdilution assay (reference value: 5.03 mg/L)
Klebsiella pneumoniae [22] = assay: Antibacterial activity against clinical isolate Klebsiella pneumoniae ST23213/19 expressing blaNDM-1 co-expressing blaOXA-48/blaSHV-11/blaCTX-M-15 and blaOXA-1 assessed as meropenem MIC at 47 uM measured after 20 hrs by broth microdilution assay (reference value: 10.06 mg/L)
Klebsiella pneumoniae [23] = assay: Antibacterial activity against clinical isolate Klebsiella pneumoniae 62/07 expressing blaVIM-19 co-expressing blaSHV-1/blaCTX-M-14 and blaCMY-4 assessed as meropenem MIC at 23.5 uM measured after 20 hrs by broth microdilution assay (reference value: 5.03 mg/L)
Klebsiella pneumoniae [24] = assay: Antibacterial activity against clinical isolate Klebsiella pneumoniae 62/07 expressing blaVIM-19 co-expressing blaSHV-1/blaCTX-M-14 and blaCMY-4 assessed as meropenem MIC at 47 uM measured after 20 hrs by broth microdilution assay (reference value: 10.06 mg/L)

- MIC (Escherichia coli [1]): ≤ 0.125 µg/mL
- MIC (Escherichia coli [2]): ≤ 0.125 µg/mL
- MIC (Escherichia coli [3]): ≤ 0.125 µg/mL
- MIC (Escherichia coli [4]): ≤ 0.125 µg/mL
- MIC (Escherichia coli [5]): ≤ 0.125 µg/mL
- MIC (Escherichia coli [6]): ≤ 0.125 µg/mL
- MIC (Escherichia coli [7]): ≤ 0.125 µg/mL
- MIC (Escherichia coli [8]): ≤ 0.125 µg/mL
- MIC (Acinetobacter baumannii [9]): ≤ 0.125 µg/mL
- MIC (Acinetobacter baumannii [10]): ≤ 0.125 µg/mL
- MIC (Escherichia coli [11]): ≤ 0.125 µg/mL
- MIC (Escherichia coli [12]): ≤ 0.125 µg/mL
- MIC (Klebsiella pneumoniae [13]): 128 µg/mL
- MIC (Klebsiella pneumoniae [14]): 16 µg/mL
- MIC (Klebsiella pneumoniae [15]): 4 µg/mL
- MIC (Klebsiella pneumoniae [16]): ≤ 0.125 µg/mL
- MIC (Klebsiella pneumoniae [17]): 4 µg/mL
- MIC (Klebsiella pneumoniae [18]): ≤ 0.125 µg/mL
- MIC (Escherichia coli [19]): ≤ 0.125 µg/mL
- MIC (Escherichia coli [20]): ≤ 0.125 µg/mL
- MIC (Klebsiella pneumoniae [21]): 128 µg/mL
- MIC (Klebsiella pneumoniae [22]): 16 µg/mL
- MIC (Klebsiella pneumoniae [23]): 8 µg/mL
- MIC (Klebsiella pneumoniae [24]): ≤ 0.125 µg/mL
Compound: Oc1c(Cl)cc(Cl)c2cccnc12 [CHLOROXINE]
